Measured values reported in patent publication US6914045B2, “Glycopeptide antibiotics” (Wyeth Holdings Corporation, priority 2001, dated 2005).
Converted amounts (≈) assume the structure as drawn.

Tests used:
Assay in all cases: in vitro antibacterial evaluation, MIC by broth dilution
Assay type in all cases: cell-based
Staphylococcus sp. = conditions: broth dilution, 18 hours at 35° C.; for MIC Staphylococcus aureus (ATCC 29213): strain ATCC 29213; for MIC Staphylococcus aureus (GC 1131): strain GC 1131
Description: (§1) Methods for in vitro Antibacterial Evaluation (Table 1)
(§2) The minimum inhibitory concentration (MIC), the lowest concentration of the antibiotic which inhibits growth of the test organism, is determined by the broth dilution method using Muller-Hinton II […] (Baltimore Biological Laboratories) following the recommendations of the National Committee for Clinical Laboratory Standards [Methods for dilution antimicrobial susceptibility tests for bacteria that grow aerobically, approved standard M7-A2, National Committee for Clinical Laboratory Standards, Villanova, Pa.].
(§3) An inoculum level of 5×10^5 CFU/mL, and a range of antibiotic concentrations (64-0.06 μg/mL) is used. […] The test organisms include a spectrum of Gram-positive bacteria comprised of Staphylococcus sp., Streptococcus sp. and Enterococcus sp. These organisms include recent clinical isolates that are resistant to methicillin, penicillin and/or vancomycin.

Enterococcus sp. = conditions: broth dilution, 18 hours at 35° C.
Description: as §1, §2, §3

Streptococcus sp. = conditions: broth dilution, 18 hours at 35° C.
Description: as §1, §2, §3

Escherichia coli = conditions: 18 hours at 35° C.
Description: as §2, §3

For `CC(c1ccccc1)C1NC(=O)CNC(=O)C(CO)NC(=O)C(C(O)C2CNC(=N)N2C2OC(CO)C(O)C(O)C2O)NC(=O)C(C(O)C2CNC(=N)N2)NC(=O)C(Cc2ccc(OC3OC(CO)C(OC4OC5COC6(CC(C)(C)CC(C)(C)C6)OC5C(O)C4O)C(O)C3O)cc2)NC1=O` (stereo not drawn) [Example 207], the “MIC Staphylococcus aureus (ATCC 29213)” value (Staphylococcus sp.) was 1 µg/mL (≈ 0.699 µM), the “MIC Staphylococcus aureus (GC 1131)” value (Staphylococcus sp.) was 2 µg/mL (≈ 1.4 µM) and the “MIC Staphylococcus aureus (GC 3051)” value (Staphylococcus sp.; strain GC 3051) was 2 µg/mL (≈ 1.4 µM). For the same molecule, the “MIC Staphylococcus aureus (GC 3053)” value (Staphylococcus sp.; strain GC 3053) was 1 µg/mL (≈ 0.699 µM), the “MIC Staphylococcus aureus (GC 4541)” value (Staphylococcus sp.; strain GC 4541) was 1 µg/mL (≈ 0.699 µM) and the “MIC Staphylococcus aureus (GC 4542)” value (Staphylococcus sp.; strain GC 4542) was 1 µg/mL (≈ 0.699 µM). For the same molecule, the “MIC Staphylococcus aureus-SMITH (GC 4543)” value (Staphylococcus sp.; strain GC 4543) was 1 µg/mL (≈ 0.699 µM), the “MIC Staphylococcus aureus (GC 4544)” value (Staphylococcus sp.; strain GC 4544) was 1 µg/mL (≈ 0.699 µM) and the “MIC Staphylococcus aureus (GC 4545)” value (Staphylococcus sp.; strain GC 4545) was 1 µg/mL (≈ 0.699 µM). The “MIC Staphylococcus haemolyticus (GC 4546)” value (Staphylococcus sp.; strain GC 4546) was 1 µg/mL (≈ 0.699 µM), the “MIC Coagulase Negative Staphylococcus (GC 4547)” value (Staphylococcus sp.; strain GC 4547) was 1 µg/mL (≈ 0.699 µM) and the “MIC Coagulase Negative Staphylococcus (GC 4548)” value (Staphylococcus sp.; strain GC 4548) was 0.5 µg/mL (≈ 0.349 µM). For the same molecule, the “MIC Coagulase Negative Staphylococcus (GC 4549)” value (Staphylococcus sp.; strain GC 4549) was 0.5 µg/mL (≈ 0.349 µM), the “MIC Coagulase Negative Staphylococcus (GC 4551)” value (Staphylococcus sp.; strain GC 4551) was 4 µg/mL (≈ 2.79 µM) and the “MIC Enterococcus avium (GC 4558)” value (Enterococcus sp.) was 1 µg/mL (≈ 0.699 µM). The “MIC Enterococcus faecalis (ATCC 29212)” value (Enterococcus sp.) was 4 µg/mL (≈ 2.79 µM), the “MIC Enterococcus faecalis (GC 2242)” value (Enterococcus sp.) was 4 µg/mL (≈ 2.79 µM) and the “MIC Enterococcus faecalis (GC 2691)” value (Enterococcus sp.) was 2 µg/mL (≈ 1.4 µM). For the same molecule, the “MIC Enterococcus faecalis (GC 3059)” value (Enterococcus sp.) was 2 µg/mL (≈ 1.4 µM), the “MIC Enterococcus faecalis (GC 4552)” value (Enterococcus sp.) was 4 µg/mL (≈ 2.79 µM) and the “MIC Enterococcus faecalis (GC 4553)” value (Enterococcus sp.) was 4 µg/mL (≈ 2.79 µM). For the same molecule, the “MIC Enterococcus faecalis (GC 4554)” value (Enterococcus sp.) was 4 µg/mL (≈ 2.79 µM), the “MIC Enterococcus faecalis (GC 6189)” value (Enterococcus sp.) was 2 µg/mL (≈ 1.4 µM) and the “MIC Enterococcus faecium (GC 2243)” value (Enterococcus sp.) was 4 µg/mL (≈ 2.79 µM). For the same molecule, the “MIC Enterococcus faecium (GC 4556)” value (Enterococcus sp.) was 4 µg/mL (≈ 2.79 µM), the “MIC Enterococcus faecium (GC 4557)” value (Enterococcus sp.) was 2 µg/mL (≈ 1.4 µM) and the “MIC Enterococcus faecalis (ATCC 29212)” value (Enterococcus sp.; inoculum 5×10^5 CFU/mL, strain ATCC 29212) was 4 µg/mL (≈ 2.79 µM). For the same molecule, the “MIC Enterococcus faecalis (GC 2242)” value (Enterococcus sp.; inoculum 5×10^5 CFU/mL, strain GC 2242) was 4 µg/mL (≈ 2.79 µM), the “MIC Enterococcus faecium (GC 2243)” value (Enterococcus sp.; inoculum 5×10^5 CFU/mL, strain GC 2243) was 4 µg/mL (≈ 2.79 µM) and the “MIC Enterococcus faecalis (GC 2691)” value (Enterococcus sp.; inoculum 5×10^5 CFU/mL, strain GC 2691) was 2 µg/mL (≈ 1.4 µM). The “MIC Enterococcus faecalis (GC 3059)” value (Enterococcus sp.; inoculum 5×10^5 CFU/mL, strain GC 3059) was 2 µg/mL (≈ 1.4 µM), the “MIC Enterococcus faecalis (GC 4552)” value (Enterococcus sp.; inoculum 5×10^5 CFU/mL, strain GC 4552) was 4 µg/mL (≈ 2.79 µM) and the “MIC Enterococcus faecalis (GC 4553)” value (Enterococcus sp.; inoculum 5×10^5 CFU/mL, strain GC 4553) was 4 µg/mL (≈ 2.79 µM). The “MIC Enterococcus faecalis (GC 4554)” value (Enterococcus sp.; inoculum 5×10^5 CFU/mL, strain GC 4554) was 4 µg/mL (≈ 2.79 µM), the “MIC Enterococcus faecium (GC 4556)” value (Enterococcus sp.; inoculum 5×10^5 CFU/mL, strain GC 4556) was 4 µg/mL (≈ 2.79 µM) and the “MIC Enterococcus faecium (GC 4557)” value (Enterococcus sp.; inoculum 5×10^5 CFU/mL, strain GC 4557) was 2 µg/mL (≈ 1.4 µM). For the same molecule, the “MIC Enterococcus avium (GC 4558)” value (Enterococcus sp.; inoculum 5×10^5 CFU/mL, strain GC 4558) was 1 µg/mL (≈ 0.699 µM), the “MIC Enterococcus faecalis (GC 6189)” value (Enterococcus sp.; inoculum 5×10^5 CFU/mL, strain GC 6189) was 2 µg/mL (≈ 1.4 µM) and the “MIC Streptococcus agalactiae (GC 4564)” value (Streptococcus sp.) was under 0.12 µg/mL. The “MIC Streptococcus pneumoniae (ATCC 6301)” value (Streptococcus sp.) was under 0.12 µg/mL, the “MIC Streptococcus pneumoniae (GC 1894)” value (Streptococcus sp.) was under 0.12 µg/mL and the “MIC Streptococcus pneumoniae (GC 4565)” value (Streptococcus sp.) was under 0.12 µg/mL. The “MIC Streptococcus pyogenes (GC 4563)” value (Streptococcus sp.) was under 0.12 µg/mL, the “MIC Streptococcus pneumoniae (ATCC 6301)” value (Streptococcus sp.; inoculum 5×10^5 CFU/mL, strain ATCC 6301) was under 0.12 µg/mL and the “MIC Streptococcus pneumoniae (GC 1894)” value (Streptococcus sp.; inoculum 5×10^5 CFU/mL, strain GC 1894) was under 0.12 µg/mL. The “MIC Streptococcus pyogenes (GC 4563)” value (Streptococcus sp.; inoculum 5×10^5 CFU/mL, strain GC 4563) was under 0.12 µg/mL, the “MIC Streptococcus agalactiae (GC 4564)” value (Streptococcus sp.; inoculum 5×10^5 CFU/mL, strain GC 4564) was under 0.12 µg/mL and the “MIC Streptococcus pneumoniae (GC 4565)” value (Streptococcus sp.; inoculum 5×10^5 CFU/mL, strain GC 4565) was under 0.12 µg/mL. For the same molecule, the “MIC Escherichia coli (ATCC 25922)” value (Escherichia coli) was 32 µg/mL (≈ 22.4 µM), the “MIC Escherichia coli (GC 4559)” value (Escherichia coli) was 64 µg/mL (≈ 44.7 µM) and the “MIC Escherichia coli (GC 4560)” value (Escherichia coli) was 2 µg/mL (≈ 1.4 µM).
With `CCCCCC(=O)OCC1OC(N2C(=N)NCC2C(O)C2NC(=O)C(C(O)C3CNC(=N)N3)NC(=O)C(Cc3ccc(OC4OC(CO)C(OC5OC(CO)C(O)C(O)C5O)C(O)C4O)cc3)NC(=O)C(C(C)c3ccccc3)NC(=O)CNC(=O)C(CO)NC2=O)C(O)C(O)C1O` (stereo not drawn) [Example 95, Cyclo[glycyl-β-methylphenylalanyl-O-(4-O-hexojpyranosylhexopyranosyl)tyrosyl-3-(2-iminoimidazolidin-4-yl)seryl-3-[3-(6-O-hexanoylhexopyranosyl)-2-iminoimidazolidin-4-yl]serylseryl]] the “MIC Coagulase Negative Staphylococcus (GC 4537)” value (Staphylococcus sp.) was over 64 µg/mL, the “MIC Coagulase Negative Staphylococcus (GC 4538)” value (Staphylococcus sp.) was over 64 µg/mL and the “MIC Coagulase Negative Staphylococcus (GC 4547)” value (Staphylococcus sp.) was over 64 µg/mL. For the same molecule, the “MIC Staphylococcus aureus (ATCC 29213)” value (Staphylococcus sp.) was over 64 µg/mL, the “MIC Staphylococcus aureus (GC 1131)” value (Staphylococcus sp.) was over 64 µg/mL and the “MIC Staphylococcus aureus (GC 4535)” value (Staphylococcus sp.; strain GC 4535) was over 64 µg/mL. For the same molecule, the “MIC Staphylococcus aureus-SMITH (GC 4536)” value (Staphylococcus sp.; strain GC 4536) was over 64 µg/mL, the “MIC Coagulase Negative Staphylococcus (GC 4537)” value (Staphylococcus sp.; strain GC 4537) was over 64 µg/mL and the “MIC Coagulase Negative Staphylococcus (GC 4538)” value (Staphylococcus sp.; strain GC 4538) was over 64 µg/mL. The “MIC Coagulase Negative Staphylococcus (GC 4547)” value (Staphylococcus sp.; strain GC 4547) was over 64 µg/mL, the “MIC Enterococcus faecalis (ATCC 29212)” value (Enterococcus sp.; Enterococcus faecalis (ATCC 29212)) was over 64 µg/mL and the “MIC Enterococcus faecalis (GC 4552)” value (Enterococcus sp.; Enterococcus faecalis (GC 4552)) was over 64 µg/mL. The “MIC Enterococcus faecalis (ATCC 29212)” value (Enterococcus sp.) was over 64 µg/mL, the “MIC Enterococcus faecalis (GC 2242)” value (Enterococcus sp.) was over 64 µg/mL and the “MIC Enterococcus faecalis (GC 4552)” value (Enterococcus sp.) was over 64 µg/mL. The “MIC Enterococcus faecalis (GC 2242)” value (Enterococcus sp.; strain GC 2242) was over 64 µg/mL, the “MIC Escherichia coli (GC 4559)” value (Escherichia coli) was over 64 µg/mL and the “MIC Escherichia coli (GC 4560)” value (Escherichia coli) was 8 µg/mL (≈ 5.74 µM).
